Reference: paper PMC3690263, “Trypanocidal Activity of Smallanthus sonchifolius: Identification of Active Sesquiterpene Lactones by Bioassay-Guided Fractionation” (Evidence-based Complementary and Alternative Medicine : eCAM, 2013)
Where “and” joins values, the source holds several entries; their conditions need not be identical. Equal entries are not always repeated. Entries after “also recorded” stand apart in the source; their conditions may differ.

Assays:
[1] = system: T. cruzi epimastigotes (RA strain); test: [3H] thymidine uptake assay, growth inhibition of T. cruzi epimastigotes; type: cell-based; conditions: Trypanosoma cruzi, 72 h of incubation
Method: T. cruzi epimastigotes (RA strain) were grown in liver infusion tryptose medium (LIT) supplemented with 10% fetal bovine serum (Natocor). Cultures were routinely maintained by weekly passages at 28°C. T. cruzi trypomastigotes were routinely maintained by infecting 21-day-old male CF1 mice. T. cruzi amastigotes were obtained by infecting J774 cells with bloodstream trypomastigotes.
S. sonchifolius OE and fractions F 1A–F 5B were tested for trypanocidal activity against T. cruzi epimastigotes, at final concentrations of 10 μg/mL and 100 μg/mL, by a [^3H] thymidine uptake assay as previously described. Compounds 1, 2, and 3 were tested at final concentrations ranging from 0.01 μg/mL to 50 μg/mL. Stock solutions of the samples were prepared in ethanol : water (1 : 1). Epimastigotes in exponential growth phase were adjusted to 1.5 × 10^6 parasites/mL and seeded on 96-well plates in the presence of the different concentrations of OE, fractions, or compounds. Parasites were cultured in triplicate for 72 h. Control parasites were cultured in absence or presence of benznidazole (20 μM; Roche-Rio de Janeiro, Brazil). Percentage inhibition was calculated as 100 − {[(cpm of treated parasites)/(cpm of untreated parasites)] × 100}. The compound concentration at which the parasite growth was inhibited by 50% (inhibitory concentration 50, IC50) was determined after 72 h.

T. cruzi epimastigotes = test: Recovery of epimastigotes after 24 h treatment (residual effect), Neubauer chamber counting; type: cell-based, Trypanosoma cruzi; conditions: for reduction in the replication rate / amount of parasites after treatment: epimastigotes; for reduction in the replication rate: at 24 h after treatment; for amount of parasites after treatment: 24 h treatment
Method: To determine whether the parasites could recover after treatment with the pure compounds, T. cruzi epimastigotes were incubated with compounds 1–3 (0.1, 1, and 10 μg/mL) for 24 h. Parasites were then centrifuged at 3000 rpm for 10 min, resuspended in fresh medium, and incubated for 2 additional days, counting the number of parasite in a Neubauer chamber on a daily basis.

T. cruzi trypomastigotes = test: Trypanocidal effect on bloodstream trypomastigotes, counting of remaining live parasites; type: cell-based, Trypanosoma cruzi; conditions: 24 h; for IC50: Trypanosoma cruzi
Method: The trypanocidal effect of compounds 1, 2, and 3 was also tested on bloodstream trypomastigotes as previously described. Briefly, mouse blood containing trypomastigotes was adjusted to a concentration of 1.5 × 10^6 parasite/mL and seeded (150 μL/well) by duplicate into a 96-well microplate, in the presence of each compound (1 to 50 μg/mL, final concentration). Plates were incubated for 24 h, and the remaining live parasites were counted in a haemocytometer.

T. cruzi amastigotes = test: Intracellular amastigotes in J774 macrophages, β-galactosidase/CPRG assay; type: cell-based, Trypanosoma cruzi; conditions: for selectivity index (SI): CC50 Vero cells divided by IC50 T. cruzi amastigotes; for IC50: Trypanosoma cruzi, intracellular amastigotes in J774 macrophages, 48 h after addition
Method: To evaluate the effect of compounds 1–3 on intracellular forms of T. cruzi, 96-well plates were seeded with J774 murine macrophages at 5 × 10^3 per well in 100 μL of culture medium and incubated for 2 h at 37°C in a 5% CO2 atmosphere. Cells were infected with transfected blood trypomastigotes expressing β-galactosidase at a parasite : cell ratio of 10 : 1. After 2 h of coculture, plates were washed twice with PBS to remove free parasites and compounds 1–3 were added at 0.1–50 μg/mL per well in 150 μL of fresh complete RPMI medium without phenol red (Gibco, Rockville, MD). Controls included infected nontreated cells (100% infection control) and uninfected cells (0% infection control). The assay was developed 48 h later by addition of chlorophenol red-β-d-galactopyranoside (100 μM CPRG) and 1% Nonidet P40. Plates were incubated for 4–6 h at 37°C. Wells with galactosidase activity turned the media from yellow to red, and this reaction was quantified at 590 nm in a microplate reader (Bio-Rad Laboratories, Hercules, CA). Percentage inhibition was calculated as 100 − {[(absorbance of treated infected cells)/(absorbance of untreated infected cells)] × 100} and the IC50 value calculated.
The selectivity index (SI) of each compound was calculated as the CC50 obtained with Vero cells divided by the IC50 obtained against T. cruzi amastigotes.

MTT cytotoxicity assay = type: cell-based; conditions: African green monkey, Vero cells
Method: The cytotoxic effect of compounds 1, 2, and 3 on Vero cells was evaluated by using the MTT tetrazolium salt (3-(4,5-dimethylthiazol-2-yl)-2,5-diphenyltetrazolium bromide) (Sigma) colorimetric assay. Cells (5 × 10^4 cells/well) were seeded at a final volume of 150 μL in a flat-bottom 96-well microplate and cultured at 37°C in a 5% CO2 atmosphere in the absence or presence of increasing concentrations of the compounds (1–50 μg/mL). After 24 h, MTT was added at a final concentration of 1.5 mg/mL and plates were incubated for 2 h at 37°C. The purple formazan crystals were completely dissolved by adding 150 μL of ethanol, and the absorbance was detected at 570 nm in a microplate reader. Results were calculated as the ratio between optical density in the presence and absence of the compound multiplied by 100. The 50% cytotoxic concentration (CC50) was calculated for each compound. All experiments were made in duplicate.

[2] = 10 μg/mL for 24 h, then 2 days in fresh medium

| SMILES | IC50 [1] | recovery of epimastigote replication after removal of compound (T. cruzi epimastigotes; 0.1 μg/mL for 24 h, then fresh medium) | reduction in the replication rate (T. cruzi epimastigotes; 10 μg/mL) [%] | activity against trypomastigotes (T. cruzi trypomastigotes; 1 to 50 μg/mL) | selectivity index (SI) (T. cruzi amastigotes) | IC50 (T. cruzi amastigotes) | CC50 at 24 h (MTT cytotoxicity assay) | recovery of epimastigote replication after removal of compound (T. cruzi epimastigotes; [2]) | reduction in the replication rate (T. cruzi epimastigotes; 1 μg/mL) [%] | amount of parasites after treatment (T. cruzi epimastigotes; 10 μg/mL) | IC50 (T. cruzi trypomastigotes) |
| --- | --- | --- | --- | --- | --- | --- | --- | --- | --- | --- | --- |
| C=C1C(=O)O[C@@H]2/C=C(\C)CC/C=C(/C(=O)OC)[C@H](OC(C)=O)[C@@H](OC(=O)/C(C)=C\C)[C@@H]12 [polymatin B, 8β-angeloyloxi-9α-acetyloxi-1(10)E,4E,11(13)-germacratrien-12,6α-olide-14-oic acid methyl ester] | 4.9 µM and 2.12 µg/mL | recovered their replication rates at values similar to the control parasites | ~50 | not active | 16.3 | 9.02 µM and 3.9 µg/mL | 147 µM and 63.7 µg/mL |  |  |  |  |
| C=C1C(=O)O[C@@H]2/C=C(\C)CC/C=C(/C(=O)OC)[C@H](OC(C)=O)[C@@H](OC(=O)[C@]3(C)O[C@@H]3C)[C@@H]12 [uvedalin, 8β-(2′S,3′S)-epoxyangeloyloxy-9α-acetyloxy-1(10)E,4E,11(13)-germacratrien-12,6α-olide-14-oic acid methyl ester] | 1.09 µM and 0.49 µg/mL |  |  |  | 14 | 3.34 µM and 1.5 µg/mL | 46.8 µM and 21 µg/mL | not able to recover their replication rate; also recorded: no recuperation of the epimastigotes was observed; also recorded: not able to recover their initial replication rates | ~50 | drastic reduction in the amount of parasites | 25 µM and 11.2 µg/mL |
| C=C1C(=O)O[C@H]2[C@H]1[C@H](OC(=O)[C@@]1(C)O[C@H]1C)[C@@H](OC(C)=O)/C(C(=O)OC)=C\CC[C@@]1(C)O[C@H]21 [enhydrin, 4α,5β-epoxy-8β-(2′S,3′S)-epoxyangeloyloxy-9α-acetyloxy-1(10)E,11(13)-germacradien-12,6α-olide-14-oic-acid methyl ester] | 840 nM and 0.39 µg/mL |  |  |  | 9 | 5.17 µM and 2.4 µg/mL | 46.5 µM and 21.6 µg/mL | not able to recover their replication rate; also recorded: no recuperation of the epimastigotes was observed; also recorded: not able to recover their initial replication rates | ~50 | drastic reduction in the amount of parasites | 33.4 µM and 15.5 µg/mL |
